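Tested at 5 concentrations; 48 h exposure; 96-well plates; endpoints linearly interpolated, else capped at highest concentration. TGI marks complete inhibition of growth.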
How the values were obtained:
Assay in all cases: NCI-60 cell line screen, 48 h
ACHN renal = test system: ACHN renal
HL-60(TB) leukemia = test system: HL-60(TB) leukemia
HOP-92 NSCLC = test system: HOP-92 NSCLC
K-562 leukemia = test system: K-562 leukemia
LOX IMVI melanoma = test system: LOX IMVI melanoma
MCF7 breast = test system: MCF7 breast
MDA-MB-231 breast = test system: MDA-MB-231 breast
MDA-MB-435 = test system: MDA-MB-435
OVCAR-4 ovarian = test system: OVCAR-4 ovarian
PC-3 prostate = test system: PC-3 prostate
RPMI-8226 leukemia = test system: RPMI-8226 leukemia
SK-MEL-2 melanoma = test system: SK-MEL-2 melanoma
SK-OV-3 ovarian = test system: SK-OV-3 ovarian

Row | Compound | TGI (ACHN renal) [µM] | TGI (HL-60(TB) leukemia) [µM] | TGI (HOP-92 NSCLC) [µM] | TGI (K-562 leukemia) [µM] | TGI (LOX IMVI melanoma) [µM] | TGI (MCF7 breast) [µM] | TGI (MDA-MB-231 breast) [µM] | TGI (MDA-MB-435) [µM] | TGI (OVCAR-4 ovarian) [µM] | TGI (PC-3 prostate) [µM] | TGI (RPMI-8226 leukemia) [µM] | TGI (SK-MEL-2 melanoma) [µM] | TGI (SK-OV-3 ovarian) [µM]
1 | CC1(C)OC(=S)N(c2ccccc2)C12C=Cc1ccccc1O2 (stereo unspecified) | > 100 | 52.4 | > 100 | > 100 | > 100 | > 100 | > 100 | > 100 | > 100 | > 100 | > 100 | > 100 | 73
2 | CC(=O)Oc1ccc(/C=C/C(=O)OCCCOC(=O)/C=C/c2ccc(OC(C)=O)c(OC(C)=O)c2)cc1OC(C)=O | > 100 | 18.2 | > 100 | > 100 | > 100 | > 100 | > 100 | > 100 | > 100 | > 100 | > 100 | > 100 | > 100
3 | N#Cc1c2c(c(N)oc1=O)C(c1ccccc1)CC(=O)N2 (stereo unspecified) | > 100 | > 100 | > 100 | > 100 | > 100 | > 100 | > 100 | > 100 | > 100 | > 100 | > 100 | > 100 | > 100
4 | c1cnc2c(c1)ccc1cccnc12 | > 100 | 3.04 | > 100 | > 52.7 | > 100 | > 100 | > 100 | > 100 | > 88.4 | > 100 | 7.89 | > 100 | > 100
5 | Cc1cn(CCCCC2=NCCCN2)c(=O)[nH]c1=O | > 31 | > 19.7 | 18.3 | > 37.2 | > 32.6 | > 34.4 | > 42 | > 33.8 | > 40.7 | > 35 | > 100 | > 35.9 | > 40.7
6 | COC(=O)/C=C(\CC(=O)OC)n1nnnc1[C@@H]1C[C@H](COC(c2ccccc2)(c2ccccc2)c2ccccc2)[C@H]2OC(C)(C)O[C@H]21 | > 100 | > 100 | > 100 | > 100 | > 100 | > 100 | > 100 | > 100 | > 100 | > 100 | > 100 | > 100 | > 100
7 | Cc1ccc(NC(=O)c2cc(S(=O)(=O)Nc3n[nH]c(=O)[nH]3)c(SSc3cc(Cl)c(C(=O)Nc4ccc(C)cc4)cc3S(=O)(=O)Nc3n[nH]c(=O)[nH]3)cc2Cl)cc1 | > 100 | > 100 | > 100 | > 100 | > 100 | > 100 | > 100 | > 100 | > 100 | > 100 | > 100 | > 100 | > 100
8 | NC(=O)C(=CNC(=S)Nc1ccccc1)C(N)=O | > 100 | > 100 | > 100 | > 100 | > 100 | > 100 | > 100 | > 100 | > 100 | > 100 | > 100 | > 100 | > 100
9 | CC1=NC(=Cc2ccccc2O)C(=O)N1n1c(-c2ccccc2)nc2ccccc2c1=O | > 100 | > 100 | > 100 | > 100 | > 100 | 74.2 | > 100 | > 100 | > 100 | > 100 | > 100 | – | > 100
10 | O=C(/C=C/c1ccc(Oc2cc(C(=O)/C=C/c3ccc(O)cc3)c(O)cc2O)cc1)c1ccc(O)cc1O | 22.2 | > 100 | 55.3 | 16.6 | 28.6 | 19.5 | > 100 | 17.6 | 28.3 | 24.9 | 8.09 | 28.2 | 8.88
11 | c1ccc2oc(-c3ccc(-c4nc5ccccc5o4)c4c3CC4)nc2c1 | > 100 | > 100 | > 100 | > 100 | > 100 | > 100 | > 100 | > 100 | > 100 | > 100 | > 100 | > 100 | > 100
12 | COC(=O)c1ccc2c(c1)S/C(=C/c1ccc3ccc4cccc5ccc1c3c45)S2 | > 100 | 46.9 | > 100 | > 100 | > 100 | > 100 | > 100 | 74.3 | > 100 | > 100 | > 100 | > 100 | > 100
13 | N#Cc1nc(-c2ccco2)oc1N | > 10 | > 10 | > 10 | > 10 | > 10 | > 10 | > 10 | > 10 | > 10 | > 10 | > 10 | – | > 10
14 | CCOC(=O)N1N=C(/C(C)=N/OC)C(C)S1=O (stereo unspecified) | > 100 | > 100 | > 100 | > 100 | – | > 100 | > 100 | > 100 | > 100 | > 100 | > 100 | > 100 | > 100
15 | Nc1ncnc2oc(C3OC(COC(=O)c4ccccc4)C(OC(=O)c4ccccc4)C3OC(=O)c3ccccc3)nc12 (stereo unspecified) | > 100 | > 100 | > 100 | > 100 | > 100 | > 100 | > 100 | > 100 | > 100 | > 100 | > 100 | – | > 100
16 | C[N+](C)(C)c1ncnc2c1ncn2C1CC(O)C(CO)O1 (stereo unspecified) | > 100 | > 100 | > 100 | > 100 | > 100 | > 100 | > 100 | > 100 | > 100 | > 100 | > 100 | > 100 | > 100
17 | NS(=O)(=O)c1nnc(NS(=O)(=O)C(F)(F)F)s1 | > 100 | > 100 | > 100 | > 100 | – | > 100 | > 100 | > 100 | > 100 | > 100 | > 100 | > 100 | > 100

Source: PubChem BioAssay (NCI)
